Measured values taken from the kinase profiling compilation of Christmann-Franck et al. (2016).

How the values were obtained:
Assay in all cases: KINOMEscan competition binding
Details in all cases: compound 2.0 µM
STK3 (human) = STK3 (human) (UniProt Q13188)
CDK3 (human) = CDK3 (human) (UniProt Q00526)
RPS6KA4 KD2 (human) = RPS6KA4 KD2 (human) (UniProt O75676)
NEK11 (human) = NEK11 (human) (UniProt Q8NG66)
PAK7 (human) = PAK7 (human) (UniProt Q9P286)
CSNK1A1 (human) = CSNK1A1 (human) (UniProt P48729)
MAP3K6 (human) = MAP3K6 (human) (UniProt O95382)
EPHA5 (human) = EPHA5 (human) (UniProt P54756)
PTK2B (human) = PTK2B (human) (UniProt Q14289)
CLK1 (human) = CLK1 (human) (UniProt P49759)
CDK5 (human) = CDK5 (human) (UniProt Q00535)
MAPK14 (human) = MAPK14 (human) (UniProt Q16539)
AURKA (human) = AURKA (human) (UniProt O14965)
PRPF4B (human) = PRPF4B (human) (UniProt Q13523)
DCLK3 (human) = DCLK3 (human) (UniProt Q9C098)
STK38L (human) = STK38L (human) (UniProt Q9Y2H1)
MYLK4 (human) = MYLK4 (human) (UniProt Q86YV6)
MAPK7 (human) = MAPK7 (human) (UniProt Q13164)
EIF2AK2 (human) = EIF2AK2 (human) (UniProt P19525)
EPHB2 (human) = EPHB2 (human) (UniProt P29323)
EPHA6 (human) = EPHA6 (human) (UniProt Q9UF33)
CSK (human) = CSK (human) (UniProt P41240)
ANKK1 (human) = ANKK1 (human) (UniProt Q8NFD2)
TIE1 (human) = TIE1 (human) (UniProt P35590)
EPHA1 (human) = EPHA1 (human) (UniProt P21709)
GSK3B (human) = GSK3B (human) (UniProt P49841)
PIK3C2B (human) = PIK3C2B (human) (UniProt O00750)
[1] = tested on: PIK3CA (human), P42336 [E545A]
MAP3K12 (human) = MAP3K12 (human) (UniProt Q12852)
MAP2K4 (human) = MAP2K4 (human) (UniProt P45985)
CSNK1A1L (human) = CSNK1A1L (human) (UniProt Q8N752)
NTRK2 (human) = NTRK2 (human) (UniProt Q16620)
RPS6KA2 KD1 (human) = RPS6KA2 KD1 (human) (UniProt Q15349)
STK11 (human) = STK11 (human) (UniProt Q15831)
CAMKK1 (human) = CAMKK1 (human) (UniProt Q8N5S9)
MKNK2 (human) = MKNK2 (human) (UniProt Q9HBH9)
RET (human) = RET (human) (UniProt P07949)
SRPK2 (human) = SRPK2 (human) (UniProt P78362)
RPS6KA6 KD1 (human) = RPS6KA6 KD1 (human) (UniProt Q9UK32)
YSK4 (human) = YSK4 (human) (UniProt Q56UN5)
ADCK4 (human) = ADCK4 (human) (UniProt Q96D53)
[2] = tested on: FLT3 (human), P36888 [D835H]
CAMK2B (human) = CAMK2B (human) (UniProt Q13554)

Sequence of MAP2K4 (human) (P45985 whole entry, looked up): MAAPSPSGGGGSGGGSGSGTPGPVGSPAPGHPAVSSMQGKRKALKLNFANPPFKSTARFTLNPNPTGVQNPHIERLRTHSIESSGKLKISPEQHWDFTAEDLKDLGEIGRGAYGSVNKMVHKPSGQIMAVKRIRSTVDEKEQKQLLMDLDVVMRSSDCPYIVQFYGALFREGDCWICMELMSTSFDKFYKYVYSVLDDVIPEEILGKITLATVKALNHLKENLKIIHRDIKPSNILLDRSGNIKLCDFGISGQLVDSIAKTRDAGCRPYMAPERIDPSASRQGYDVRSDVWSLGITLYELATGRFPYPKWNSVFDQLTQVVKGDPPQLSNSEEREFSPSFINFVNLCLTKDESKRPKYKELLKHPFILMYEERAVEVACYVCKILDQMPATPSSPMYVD
Sequence of MAPK7 (human) (Q13164 whole entry, looked up): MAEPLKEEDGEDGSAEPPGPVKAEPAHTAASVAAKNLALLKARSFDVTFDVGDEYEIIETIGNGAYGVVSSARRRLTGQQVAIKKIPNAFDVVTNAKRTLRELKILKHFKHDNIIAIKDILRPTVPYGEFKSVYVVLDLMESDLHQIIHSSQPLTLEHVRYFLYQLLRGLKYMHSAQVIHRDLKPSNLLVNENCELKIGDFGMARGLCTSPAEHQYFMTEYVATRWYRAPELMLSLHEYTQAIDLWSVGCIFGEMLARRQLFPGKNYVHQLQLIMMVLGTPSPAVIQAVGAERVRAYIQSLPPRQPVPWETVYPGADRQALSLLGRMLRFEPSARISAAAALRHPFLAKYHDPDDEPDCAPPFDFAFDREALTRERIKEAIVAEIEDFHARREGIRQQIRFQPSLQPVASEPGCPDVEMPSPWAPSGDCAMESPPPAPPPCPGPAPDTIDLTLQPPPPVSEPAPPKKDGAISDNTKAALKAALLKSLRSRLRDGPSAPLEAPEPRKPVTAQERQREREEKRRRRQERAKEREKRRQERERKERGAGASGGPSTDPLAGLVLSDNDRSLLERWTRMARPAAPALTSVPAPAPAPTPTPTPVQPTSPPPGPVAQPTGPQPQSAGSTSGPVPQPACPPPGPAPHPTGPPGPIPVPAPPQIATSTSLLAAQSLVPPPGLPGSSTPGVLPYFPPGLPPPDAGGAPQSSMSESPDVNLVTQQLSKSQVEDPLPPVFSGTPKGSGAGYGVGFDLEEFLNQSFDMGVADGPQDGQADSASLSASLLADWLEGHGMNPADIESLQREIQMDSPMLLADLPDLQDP
Sequence of RET (human) (P07949 whole entry, looked up): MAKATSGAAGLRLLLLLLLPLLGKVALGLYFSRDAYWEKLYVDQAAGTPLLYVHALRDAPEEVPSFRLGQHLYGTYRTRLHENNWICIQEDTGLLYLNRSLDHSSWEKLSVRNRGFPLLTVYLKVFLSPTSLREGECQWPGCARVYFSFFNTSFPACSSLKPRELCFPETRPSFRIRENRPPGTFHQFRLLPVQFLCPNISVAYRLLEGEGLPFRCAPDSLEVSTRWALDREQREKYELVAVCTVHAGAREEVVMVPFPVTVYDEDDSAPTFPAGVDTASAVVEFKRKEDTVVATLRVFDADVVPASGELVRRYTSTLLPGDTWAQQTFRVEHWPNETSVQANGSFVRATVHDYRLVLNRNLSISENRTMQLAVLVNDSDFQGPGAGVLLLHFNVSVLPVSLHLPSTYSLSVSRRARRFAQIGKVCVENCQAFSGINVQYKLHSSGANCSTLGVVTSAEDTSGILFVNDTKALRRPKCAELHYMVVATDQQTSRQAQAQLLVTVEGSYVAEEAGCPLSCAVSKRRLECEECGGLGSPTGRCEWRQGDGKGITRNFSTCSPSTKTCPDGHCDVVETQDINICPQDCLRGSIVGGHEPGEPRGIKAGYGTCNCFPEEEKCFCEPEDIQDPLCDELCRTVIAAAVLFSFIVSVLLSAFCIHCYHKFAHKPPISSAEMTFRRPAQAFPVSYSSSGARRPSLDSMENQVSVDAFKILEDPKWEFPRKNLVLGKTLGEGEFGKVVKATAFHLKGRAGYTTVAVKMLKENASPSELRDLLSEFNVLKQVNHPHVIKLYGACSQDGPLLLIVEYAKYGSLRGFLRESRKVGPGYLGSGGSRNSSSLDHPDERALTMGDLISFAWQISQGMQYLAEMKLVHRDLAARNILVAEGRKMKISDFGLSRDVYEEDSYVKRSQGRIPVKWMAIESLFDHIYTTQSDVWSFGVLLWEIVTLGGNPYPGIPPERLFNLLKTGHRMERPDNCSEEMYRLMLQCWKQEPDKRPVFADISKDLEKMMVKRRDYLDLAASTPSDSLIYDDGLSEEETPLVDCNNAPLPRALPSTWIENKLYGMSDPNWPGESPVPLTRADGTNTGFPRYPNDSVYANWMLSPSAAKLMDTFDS
Sequence of GSK3B (human) (P49841 whole entry, looked up): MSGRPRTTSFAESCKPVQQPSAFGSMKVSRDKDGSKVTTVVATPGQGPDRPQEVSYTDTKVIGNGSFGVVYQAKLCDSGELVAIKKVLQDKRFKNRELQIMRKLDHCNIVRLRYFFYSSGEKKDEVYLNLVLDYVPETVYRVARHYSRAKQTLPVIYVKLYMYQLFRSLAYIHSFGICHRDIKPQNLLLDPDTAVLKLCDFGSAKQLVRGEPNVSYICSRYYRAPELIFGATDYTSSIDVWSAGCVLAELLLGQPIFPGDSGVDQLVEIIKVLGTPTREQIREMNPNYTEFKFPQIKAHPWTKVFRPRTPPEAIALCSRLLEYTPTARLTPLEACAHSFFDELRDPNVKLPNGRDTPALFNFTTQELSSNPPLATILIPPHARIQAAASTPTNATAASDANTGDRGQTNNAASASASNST
Sequence of STK38L (human) (Q9Y2H1 whole entry, looked up): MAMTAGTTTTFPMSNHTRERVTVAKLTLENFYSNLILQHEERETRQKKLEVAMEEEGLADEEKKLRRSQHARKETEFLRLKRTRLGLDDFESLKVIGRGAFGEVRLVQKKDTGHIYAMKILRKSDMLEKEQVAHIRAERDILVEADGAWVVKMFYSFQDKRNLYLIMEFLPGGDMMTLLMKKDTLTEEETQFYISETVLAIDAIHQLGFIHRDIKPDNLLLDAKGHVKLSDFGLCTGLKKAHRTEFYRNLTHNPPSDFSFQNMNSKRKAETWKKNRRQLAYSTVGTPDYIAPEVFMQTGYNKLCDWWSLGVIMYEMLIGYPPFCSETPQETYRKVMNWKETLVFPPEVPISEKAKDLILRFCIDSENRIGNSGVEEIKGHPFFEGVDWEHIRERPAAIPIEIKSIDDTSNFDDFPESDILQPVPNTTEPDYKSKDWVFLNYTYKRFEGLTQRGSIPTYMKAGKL
Sequence of NTRK2 (human) (Q16620 whole entry, looked up): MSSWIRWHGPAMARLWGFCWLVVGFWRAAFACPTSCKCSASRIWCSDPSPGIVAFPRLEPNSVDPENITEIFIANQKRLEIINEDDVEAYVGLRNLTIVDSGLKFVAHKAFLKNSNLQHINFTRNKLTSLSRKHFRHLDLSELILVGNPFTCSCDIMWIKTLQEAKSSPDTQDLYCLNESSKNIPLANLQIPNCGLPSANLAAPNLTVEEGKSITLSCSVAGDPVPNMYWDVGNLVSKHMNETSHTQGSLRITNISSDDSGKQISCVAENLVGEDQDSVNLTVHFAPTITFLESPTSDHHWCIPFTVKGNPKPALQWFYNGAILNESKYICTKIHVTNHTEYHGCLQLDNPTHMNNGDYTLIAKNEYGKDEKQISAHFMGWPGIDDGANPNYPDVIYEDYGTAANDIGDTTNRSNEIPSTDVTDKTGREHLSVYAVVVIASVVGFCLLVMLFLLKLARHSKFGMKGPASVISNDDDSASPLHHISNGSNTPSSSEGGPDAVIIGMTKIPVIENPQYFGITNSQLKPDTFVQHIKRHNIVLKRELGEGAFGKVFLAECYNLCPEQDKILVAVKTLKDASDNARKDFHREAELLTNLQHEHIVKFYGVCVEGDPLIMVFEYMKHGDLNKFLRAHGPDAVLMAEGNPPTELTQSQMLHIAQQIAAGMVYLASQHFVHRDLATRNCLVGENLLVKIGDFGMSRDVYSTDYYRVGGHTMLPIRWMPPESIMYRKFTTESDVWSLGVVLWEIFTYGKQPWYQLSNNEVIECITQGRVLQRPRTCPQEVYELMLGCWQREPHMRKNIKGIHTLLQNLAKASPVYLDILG
Sequence of STK3 (human) (Q13188 whole entry, looked up): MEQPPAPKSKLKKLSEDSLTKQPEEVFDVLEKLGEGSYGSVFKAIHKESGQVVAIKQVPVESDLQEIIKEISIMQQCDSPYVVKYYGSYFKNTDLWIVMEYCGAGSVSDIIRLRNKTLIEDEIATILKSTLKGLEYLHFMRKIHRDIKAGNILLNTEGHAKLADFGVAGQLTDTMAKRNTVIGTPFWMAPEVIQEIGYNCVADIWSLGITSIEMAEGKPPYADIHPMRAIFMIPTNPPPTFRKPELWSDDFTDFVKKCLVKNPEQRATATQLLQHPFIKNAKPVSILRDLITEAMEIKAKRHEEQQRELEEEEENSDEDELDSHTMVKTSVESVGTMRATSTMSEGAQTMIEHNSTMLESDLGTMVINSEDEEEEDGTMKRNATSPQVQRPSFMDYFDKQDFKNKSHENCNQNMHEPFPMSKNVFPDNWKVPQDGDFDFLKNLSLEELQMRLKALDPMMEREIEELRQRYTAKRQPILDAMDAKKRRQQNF
Sequence of CSK (human) (P41240 whole entry, looked up): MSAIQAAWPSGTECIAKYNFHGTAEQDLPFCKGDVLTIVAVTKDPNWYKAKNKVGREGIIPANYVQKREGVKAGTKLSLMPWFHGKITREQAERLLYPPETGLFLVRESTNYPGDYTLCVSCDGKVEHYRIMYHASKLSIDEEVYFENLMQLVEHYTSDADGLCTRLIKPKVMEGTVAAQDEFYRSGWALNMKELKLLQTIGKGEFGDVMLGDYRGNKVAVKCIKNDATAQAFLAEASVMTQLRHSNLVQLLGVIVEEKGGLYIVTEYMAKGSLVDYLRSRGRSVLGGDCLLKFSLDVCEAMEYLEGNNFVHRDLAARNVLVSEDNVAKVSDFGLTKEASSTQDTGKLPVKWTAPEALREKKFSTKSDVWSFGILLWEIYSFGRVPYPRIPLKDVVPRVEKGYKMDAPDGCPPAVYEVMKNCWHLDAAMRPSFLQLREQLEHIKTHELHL

Compound: N#Cc1ccc2ncnc(NCCc3ccc4ccccc4c3)c2c1
- kinase still bound, per cent of control (STK3 (human)): 74%
- kinase still bound, per cent of control (CDK3 (human)): 100%
- kinase still bound, per cent of control (RPS6KA4 KD2 (human)): 90%
- kinase still bound, per cent of control (NEK11 (human)): 99%
- kinase still bound, per cent of control (PAK7 (human)): 100%
- kinase still bound, per cent of control (CSNK1A1 (human)): 87%
- kinase still bound, per cent of control (MAP3K6 (human)): 100%
- kinase still bound, per cent of control (EPHA5 (human)): 100%
- kinase still bound, per cent of control (PTK2B (human)): 85%
- kinase still bound, per cent of control (CLK1 (human)): 56%
- kinase still bound, per cent of control (CDK5 (human)): 100%
- kinase still bound, per cent of control (MAPK14 (human)): 100%
- kinase still bound, per cent of control (AURKA (human)): 94%
- kinase still bound, per cent of control (PRPF4B (human)): 100%
- kinase still bound, per cent of control (DCLK3 (human)): 99%
- kinase still bound, per cent of control (STK38L (human)): 90%
- kinase still bound, per cent of control (MYLK4 (human)): 81%
- kinase still bound, per cent of control (MAPK7 (human)): 93%
- kinase still bound, per cent of control (EIF2AK2 (human)): 72%
- kinase still bound, per cent of control (EPHB2 (human)): 99%
- kinase still bound, per cent of control (EPHA6 (human)): 100%
- kinase still bound, per cent of control (CSK (human)): 100%
- kinase still bound, per cent of control (ANKK1 (human)): 100%
- kinase still bound, per cent of control (TIE1 (human)): 90%
- kinase still bound, per cent of control (EPHA1 (human)): 89%
- kinase still bound, per cent of control (GSK3B (human)): 89%
- kinase still bound, per cent of control (PIK3C2B (human)): 85%
- kinase still bound, per cent of control [1]: 92%
- kinase still bound, per cent of control (MAP3K12 (human)): 100%
- kinase still bound, per cent of control (MAP2K4 (human)): 89%
- kinase still bound, per cent of control (CSNK1A1L (human)): 89%
- kinase still bound, per cent of control (NTRK2 (human)): 98%
- kinase still bound, per cent of control (RPS6KA2 KD1 (human)): 100%
- kinase still bound, per cent of control (STK11 (human)): 100%
- kinase still bound, per cent of control (CAMKK1 (human)): 97%
- kinase still bound, per cent of control (MKNK2 (human)): 98%
- kinase still bound, per cent of control (RET (human)): 90%
- kinase still bound, per cent of control (SRPK2 (human)): 100%
- kinase still bound, per cent of control (RPS6KA6 KD1 (human)): 100%
- kinase still bound, per cent of control (YSK4 (human)): 86%
- kinase still bound, per cent of control (ADCK4 (human)): 100%
- kinase still bound, per cent of control [2]: 98%
- kinase still bound, per cent of control (CAMK2B (human)): 88%
